Earlier results in patent US20230293541A1, “METHODS OF TREATING OPHTHALMIC CONDITIONS WITH ENHANCED PENETRATION COMPOSITIONS OF BIMATOPROST AND TIMOLOL” (Somerset Therapeutics, LLC, priority 2022, published 2023).

Key:
[1] = under certain conditions
[2] = patients starting on prostaglandin monotherapy
[3] = three-month comparison, glaucoma and ocular hypertension
[4] = in comparison to latanoprost and travoprost

SMILES	API stability [1]	rate of adjunctive medication use [2] [%]	mean pressures (IOP) versus latanoprost [3]	corneal penetration [4]
CC(C)OC(=O)CCC/C=C\C[C@@H]1[C@@H](/C=C/[C@@H](O)COc2cccc(C(F)(F)F)c2)[C@H](O)C[C@@H]1O [travoprost]	experiencing degradation	22.5	–	–
CCNC(=O)CCC/C=C\C[C@@H]1[C@@H](/C=C/[C@@H](O)CCc2ccccc2)[C@H](O)C[C@@H]1O [bimatoprost, (Z)-7-[(1R, 2R, 3R, 5S)-3,5-Dihydroxy-2-[(1E, 3S)˜3-hydroxy-5-phenyl˜1-pentenyl]cyclopentyl]˜5-N-ethylheptenamid]	remain stable	23.2	lower mean pressures than latanoprost at every time point studied	poor corneal penetration
CC(C)OC(=O)CCC/C=C\C[C@@H]1[C@@H](CC[C@@H](O)CCc2ccccc2)[C@H](O)C[C@@H]1O [latanoprost]	experiencing degradation	30.2	–	–
